Test results taken from ChEMBL document CHEMBL3102731, “Structure-activity relationship studies and biological characterization of human NAD(+)-dependent 15-hydroxyprostaglandin dehydrogenase inhibitors” (Bioorg Med Chem Lett, 2014).
pIC50: −log10 of the molar value.

Tests used:
[1] = target: T1, Aldehyde dehydrogenase 1A1 (Homo sapiens, UniProt P00352); assay: Inhibition of ALDH1A1 (unknown origin) using NAD+/propionaldehyde as substrate after 15 mins by UV-fluorescence assay
T1 sequence (P00352 whole entry): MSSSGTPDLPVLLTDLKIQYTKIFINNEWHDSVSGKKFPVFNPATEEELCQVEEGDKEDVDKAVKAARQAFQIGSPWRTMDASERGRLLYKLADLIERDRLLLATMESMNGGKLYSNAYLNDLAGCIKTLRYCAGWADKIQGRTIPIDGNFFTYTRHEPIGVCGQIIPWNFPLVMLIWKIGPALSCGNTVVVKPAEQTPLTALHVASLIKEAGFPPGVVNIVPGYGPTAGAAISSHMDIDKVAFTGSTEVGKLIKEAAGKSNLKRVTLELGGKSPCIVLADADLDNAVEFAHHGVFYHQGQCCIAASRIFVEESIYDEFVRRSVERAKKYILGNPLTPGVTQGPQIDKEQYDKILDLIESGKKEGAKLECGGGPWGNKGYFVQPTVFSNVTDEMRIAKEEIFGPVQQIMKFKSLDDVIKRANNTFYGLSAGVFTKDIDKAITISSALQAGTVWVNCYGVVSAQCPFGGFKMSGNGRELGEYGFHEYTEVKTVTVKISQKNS

LNCaP [2] = assay: Induction of PGE2 production in human LNCAP cells assessed as half-maximal activation concentration after 16 hrs by HTRF assay; assay type: functional, cell-based
A549 [3] = assay: Induction of PGE2 production in human A549 cells at 775 pM to 45.8 uM after 4 to 20 hrs by HTRF assay relative to control; assay type: functional
[4] = Kinetic solubility of the compound in PBS buffer at pH 7.4; assay type: physicochemical
Liver microsome = assay: Half life in rat liver microsomes in presence of NADPH; assay type: ADME
[5] = target: Glyceraldehyde-3-phosphate dehydrogenase (Oryctolagus cuniculus, UniProt P46406); assay: Inhibition of rabbit muscle GAPDH using glyceraldehyde-3-phosphate as substrate at 324 pM to 57.2 uM by fluorescence assay
[6] = target: T2, 15-hydroxyprostaglandin dehydrogenase [NAD(+)] (Homo sapiens, UniProt P15428); assay: Inhibition of human HPGD using PGE2 as substrate after 15 mins by fluorescence assay
T2 sequence (P15428 whole entry): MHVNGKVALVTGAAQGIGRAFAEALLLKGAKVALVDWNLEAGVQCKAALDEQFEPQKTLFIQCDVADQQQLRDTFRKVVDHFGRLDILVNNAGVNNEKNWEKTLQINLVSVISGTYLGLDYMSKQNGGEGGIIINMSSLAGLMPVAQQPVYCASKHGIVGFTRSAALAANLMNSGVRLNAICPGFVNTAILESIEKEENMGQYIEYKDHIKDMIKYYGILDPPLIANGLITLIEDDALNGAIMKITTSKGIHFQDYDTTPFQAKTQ

[7] = target: L-lactate dehydrogenase B chain (Homo sapiens, UniProt P07195); assay: Inhibition of LDHB (unknown origin) using sodium pyruvate as substrate at 0.46 to 57.5 uM after 15 mins by fluorescence assay
[8] = Passive permeability of the compound at pH 7.4 by PAMPA; assay type: ADME
LNCaP [9] = assay: Induction of PGE2 production in human LNCAP cells at 41.9 nM to 100 uM after 16 hrs by HTRF assay relative to control; assay type: functional
[10] = target: L-lactate dehydrogenase A chain (Homo sapiens, UniProt P00338); assay: Inhibition of LDHA (unknown origin) using sodium pyruvate as substrate at 0.46 to 57.5 uM after 15 mins by fluorescence assay
A549 [11] = assay: Induction of PGE2 production in human A549 cells assessed as concentration required for half-maximal activation after 4 to 20 hrs by HTRF assay; assay type: functional, cell-based
[12] = target: T3, Peroxisomal multifunctional enzyme type 2 (Homo sapiens, UniProt P51659); assay: Inhibition of HSD17beta4 (unknown origin) using NAD+/estradiol as substrate at 324 pM to 57.2 uM after 15 mins by UV-fluorescence assay
T3 sequence (P51659 whole entry): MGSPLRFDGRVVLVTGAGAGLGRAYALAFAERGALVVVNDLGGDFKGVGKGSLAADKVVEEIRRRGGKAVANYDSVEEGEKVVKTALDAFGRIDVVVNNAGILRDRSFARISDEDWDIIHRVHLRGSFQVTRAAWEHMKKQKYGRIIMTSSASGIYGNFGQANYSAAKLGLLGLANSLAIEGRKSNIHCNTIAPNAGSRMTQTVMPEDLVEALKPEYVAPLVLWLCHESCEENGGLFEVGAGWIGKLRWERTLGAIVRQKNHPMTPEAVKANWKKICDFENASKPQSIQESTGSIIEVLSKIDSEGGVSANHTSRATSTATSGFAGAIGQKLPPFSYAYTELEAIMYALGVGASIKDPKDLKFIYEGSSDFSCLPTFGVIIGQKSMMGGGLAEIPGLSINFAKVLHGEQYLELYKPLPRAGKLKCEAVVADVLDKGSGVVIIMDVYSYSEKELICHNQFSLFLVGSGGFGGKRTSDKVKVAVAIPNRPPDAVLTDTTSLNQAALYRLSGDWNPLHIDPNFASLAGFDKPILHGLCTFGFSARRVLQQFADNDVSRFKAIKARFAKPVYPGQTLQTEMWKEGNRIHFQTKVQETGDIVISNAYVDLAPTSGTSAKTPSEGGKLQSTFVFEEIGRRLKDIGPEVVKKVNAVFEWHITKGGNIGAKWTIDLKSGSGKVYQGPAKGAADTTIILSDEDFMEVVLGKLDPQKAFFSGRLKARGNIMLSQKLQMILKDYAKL

Glyceraldehyde-3-phosphate dehydrogenase, sequence (P46406 whole entry): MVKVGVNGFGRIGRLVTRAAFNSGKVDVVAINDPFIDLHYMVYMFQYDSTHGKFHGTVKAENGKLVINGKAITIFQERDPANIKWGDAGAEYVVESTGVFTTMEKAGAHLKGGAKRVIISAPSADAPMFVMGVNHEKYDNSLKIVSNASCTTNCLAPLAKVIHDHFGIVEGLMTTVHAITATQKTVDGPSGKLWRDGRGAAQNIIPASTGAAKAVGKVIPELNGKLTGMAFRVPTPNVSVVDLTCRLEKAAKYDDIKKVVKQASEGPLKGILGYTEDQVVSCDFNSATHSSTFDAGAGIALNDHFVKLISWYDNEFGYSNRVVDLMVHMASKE
L-lactate dehydrogenase B chain, sequence (P07195 whole entry): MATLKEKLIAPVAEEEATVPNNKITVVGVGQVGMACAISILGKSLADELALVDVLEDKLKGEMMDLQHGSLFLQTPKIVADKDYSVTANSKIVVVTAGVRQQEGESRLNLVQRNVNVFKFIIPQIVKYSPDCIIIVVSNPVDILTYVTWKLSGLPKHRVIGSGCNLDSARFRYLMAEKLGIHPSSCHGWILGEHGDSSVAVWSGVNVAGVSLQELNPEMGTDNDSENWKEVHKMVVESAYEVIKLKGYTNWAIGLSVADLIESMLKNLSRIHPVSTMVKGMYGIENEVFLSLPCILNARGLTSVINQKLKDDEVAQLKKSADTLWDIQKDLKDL

pIC50 [1] | Kinetic_solubility [4] [µM] | t1/2 (Liver microsome) [min] | IC50 [5] | pIC50 [6] | IC50 [7] | permeability [8] [×10⁻⁶ cm/s] | IC50 [10] | IC50 [12] | SMILES | AC50 (LNCaP [2]) [nM] | Activity (A549 [3]) [%] | Activity (LNCaP [9]) [%] | AC50 (A549 [11]) [nM]
6.22 | 32 | 1.9 | Not Active | 7.66 | Not Active | 1650 | Not Active | Not Active | Cc1cc(-c2nnc3n2CCCCC3)c(C)n1-c1ccc(Cl)c(Cl)c1 | 352 | 110 | 105 | 296
5.32 | 37 | 2 | Not Active | 7.47 | Not Active | 1100 | Not Active | Not Active | Cc1cc(-c2nnc3n2CCCCC3)c(C)n1-c1cccc(Cl)c1 | 558 | 114 | 68 | 590
5.82 | 33 | 1.9 | Not Active | 7.32 | Not Active | 1510 | Not Active | Not Active | Cc1cc(-c2nnc3n2CCCCC3)c(C)n1-c1cccc(C(F)(F)F)c1 | 2220 | 145 | 44 | 2090
5.62 | 28 | 1.8 | Not Active | 7.47 | Not Active | 1330 | Not Active | Not Active | Cc1ccc(-n2c(C)cc(-c3nnc4n3CCCCC4)c2C)cc1 | 703 | 107 | 71 | 166
